In patent EP1247803A2, “Indolinone compounds suitable for modulation of protein kinases” (Sugen, Inc., priority 1996, dated 1998):

Molecular target: T1, FLK-1 receptor (Mus musculus, UniProt P35918)
T1 construct: expressed in transfected cells; host or cells: NIH3T3 C7#3
Assay: FLK-1 ELISA (kinase activity of the FLK-1 receptor in FLK-1/NIH3T3 cells, VEGF stimulated)
Assay type: cell-based
Design: concentration or dose not given beside the values
Outline: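 An ELISA using affinity-purified rabbit anti-FLK-1 antiserum on anti-rabbit IgG-coated plates measured VEGF-stimulated FLK-1 kinase activity. NIH3T3 C7#3 cells carrying FLK-1 were serum-starved (0.1% FBS) overnight, then exposed to compound (final 1:200 dilution, 0.5% DMSO) for two hours at 37 °C.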

T1 sequence (P35918 20-1345): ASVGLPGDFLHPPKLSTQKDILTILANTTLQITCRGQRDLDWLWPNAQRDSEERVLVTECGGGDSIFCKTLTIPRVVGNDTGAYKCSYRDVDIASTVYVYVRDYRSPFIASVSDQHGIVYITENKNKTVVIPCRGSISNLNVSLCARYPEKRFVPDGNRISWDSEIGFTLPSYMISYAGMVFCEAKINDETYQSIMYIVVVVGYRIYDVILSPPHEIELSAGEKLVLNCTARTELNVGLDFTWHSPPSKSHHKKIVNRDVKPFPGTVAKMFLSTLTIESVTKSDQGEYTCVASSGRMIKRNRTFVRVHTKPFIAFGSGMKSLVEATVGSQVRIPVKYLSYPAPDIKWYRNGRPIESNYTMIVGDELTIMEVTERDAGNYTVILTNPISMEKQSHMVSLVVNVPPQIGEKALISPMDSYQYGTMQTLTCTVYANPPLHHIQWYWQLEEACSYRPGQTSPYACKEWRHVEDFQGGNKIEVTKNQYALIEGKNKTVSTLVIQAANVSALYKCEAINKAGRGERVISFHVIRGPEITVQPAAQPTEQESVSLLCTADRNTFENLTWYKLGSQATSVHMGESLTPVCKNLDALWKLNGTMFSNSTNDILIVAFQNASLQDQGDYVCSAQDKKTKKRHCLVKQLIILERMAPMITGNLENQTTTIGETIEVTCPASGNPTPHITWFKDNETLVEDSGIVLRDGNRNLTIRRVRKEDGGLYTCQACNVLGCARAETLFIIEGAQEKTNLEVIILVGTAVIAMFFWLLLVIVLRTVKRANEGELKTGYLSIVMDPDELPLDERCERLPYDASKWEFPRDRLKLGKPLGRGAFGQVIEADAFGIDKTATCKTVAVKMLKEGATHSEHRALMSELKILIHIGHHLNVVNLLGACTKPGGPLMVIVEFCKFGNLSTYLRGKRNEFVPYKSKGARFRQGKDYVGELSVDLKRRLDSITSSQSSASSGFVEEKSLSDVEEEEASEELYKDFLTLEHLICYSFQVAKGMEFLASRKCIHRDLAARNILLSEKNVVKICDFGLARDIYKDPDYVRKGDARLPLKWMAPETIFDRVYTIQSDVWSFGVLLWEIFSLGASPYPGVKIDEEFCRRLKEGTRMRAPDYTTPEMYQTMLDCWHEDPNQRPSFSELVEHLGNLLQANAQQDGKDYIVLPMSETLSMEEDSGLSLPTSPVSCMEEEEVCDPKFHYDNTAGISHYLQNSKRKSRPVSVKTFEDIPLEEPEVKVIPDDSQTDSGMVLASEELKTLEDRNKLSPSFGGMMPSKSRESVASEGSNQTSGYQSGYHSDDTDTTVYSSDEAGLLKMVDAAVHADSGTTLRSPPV

First: COc1cc(N(C)C)ccc1C=C1C(=O)Nc2ccc(CCCl)cc21 [10728/G05]
Second: COc1ccc(OC)c(C=C2C(=O)Nc3ccc(CCCl)cc32)c1 [10728/G02]
The “Fik Kinase %Inhibition” value of the first is higher: 9.4% for the first, 2.3% for the second.

First: COc1ccc2ccccc2c1C=C1C(=O)Nc2ccc(S(=O)(=O)Nc3ccc(C(F)(F)F)cc3)cc21 [10729/E02]
Second: COc1ccc(C=C2C(=O)Nc3ccc(S(=O)(=O)Nc4ccc(C(F)(F)F)cc4)cc32)c2ccccc12 [10729/E03]
The “Fik Kinase %Inhibition” value of the first is higher: 26.6% for the first, 6.9% for the second.

Compared with `CSc1ccc(C=C2C(=O)Nc3ccc(S(=O)(=O)Nc4ccc(C(F)(F)F)cc4)cc32)cc1` [10729/E04], `Cc1ccsc1C=C1C(=O)Nc2ccc(S(=O)(=O)Nc3ccc(C(F)(F)F)cc3)cc21` [10729/E05] is higher in “Fik Kinase %Inhibition” value: 9.7% for the first, 46.8% for the second.

Going from `O=C1Nc2ccc(I)cc2C1=Cc1cccc(Oc2ccccc2)c1` [10729/B06] to `CNS(=O)(=O)c1ccc2c(c1)C(=Cc1cccc(Oc3ccccc3)c1)C(=O)N2` [10729/D06], the “Fik Kinase %Inhibition” value falls from 2.0% to 0.2%.

Going from `COc1ccc2ccccc2c1C=C1C(=O)Nc2ccc(Br)c(C)c21` [10729/C02] to `COc1ccc(C=C2C(=O)Nc3ccc(Br)c(C)c32)c2ccccc12` [10729/C03], the “Fik Kinase %Inhibition” value rises from 6.0% to 11.0%.

First: Cc1ccsc1C=C1C(=O)Nc2ccc(Br)c(C)c21 [10729/C05]
Second: Cc1ccsc1C=C1C(=O)Nc2ccc(I)cc21 [10729/B05]
The “Fik Kinase %Inhibition” value of the first is higher: 5.8% for the first, -5.2% for the second.

Going from `CSc1ccc(C=C2C(=O)Nc3ccc(Br)c(C)c32)cc1` [10729/C04] to `Cc1c(Br)ccc2c1C(=Cc1ccncc1)C(=O)N2` [10729/C09], the “Fik Kinase %Inhibition” value falls from -2.5% to -26.4%.

Compared with `CNS(=O)(=O)c1ccc2c(c1)C(=Cc1ccncc1)C(=O)N2` [10729/D09], `CNS(=O)(=O)c1ccc2c(c1)C(=Cc1cccnc1)C(=O)N2` [10729/D08] is lower in “Fik Kinase %Inhibition” value: -9.6% for the first, -26.2% for the second.

Compared with `O=C1Nc2ccc(CCCl)cc2C1=Cc1ccc2c(c1)Cc1ccccc1-2` [10728/G06], `O=C1Nc2ccc(S(=O)(=O)Nc3ccc(C(F)(F)F)cc3)cc2C1=Cc1ccc2c(c1)Cc1ccccc1-2` [10728/E06] is lower in “Fik Kinase %Inhibition” value: 13.5% for the first, 6.6% for the second.

First: CNS(=O)(=O)c1ccc2c(c1)C(=Cc1cc(OC)c3c(c1)OCO3)C(=O)N2 [10728/D11]
Second: COc1cc(C=C2C(=O)Nc3ccc(CCCl)cc32)cc2c1OCO2 [10728/G11]
The “Fik Kinase %Inhibition” value of the first is higher: 15.9% for the first, 3.2% for the second.

First: CSc1ccc(C=C2C(=O)Nc3ccc(I)cc32)cc1 [10729/B04]
Second: CNS(=O)(=O)c1ccc2c(c1)C(=Cc1ccc(SC)cc1)C(=O)N2 [10729/D04]
The “Fik Kinase %Inhibition” value of the first is higher: 0.1% for the first, -5.7% for the second.

First: O=C1Nc2c(Br)cc(Br)cc2C1=CC1C=CCCC1 (centres unmarked) [10729/A11]
Second: Cc1c(Br)ccc2c1C(=CC1C=CCCC1)C(=O)N2 (centres unmarked) [10729/C11]
The “Fik Kinase %Inhibition” value of the first is lower: 4.9% for the first, 10.4% for the second.

First: COc1ccc(OC)c(C=C2C(=O)Nc3ccc(S(=O)(=O)Nc4ccc(C(F)(F)F)cc4)cc32)c1 [10728/E02]
Second: COc1cc(N(C)C)ccc1C=C1C(=O)Nc2ccc(S(=O)(=O)Nc3ccc(C(F)(F)F)cc3)cc21 [10728/E05]
The “Fik Kinase %Inhibition” value of the first is lower: 5.4% for the first, 17.4% for the second.

Compared with `CNS(=O)(=O)c1ccc2c(c1)C(=Cc1c(F)cccc1C(F)(F)F)C(=O)N2` [10728/D09], `CNS(=O)(=O)c1ccc2c(c1)C(=Cc1cccc(C(F)(F)F)c1F)C(=O)N2` [10728/D07] is lower in “Fik Kinase %Inhibition” value: 10.5% for the first, 8.1% for the second.

Going from `CSc1ccc(C=C2C(=O)Nc3c(Br)cc(Br)cc32)cc1` [10729/A04] to `O=C1Nc2c(Br)cc(Br)cc2C1=Cc1ccncc1` [10729/A09], the “Fik Kinase %Inhibition” value rises from -4.0% to 0.4%.

First: O=C1Nc2c(Br)cc(Br)cc2C1=Cc1cccc(Oc2ccccc2)c1 [10729/A06]
Second: Cc1c(Br)ccc2c1C(=Cc1cccc(Oc3ccccc3)c1)C(=O)N2 [10729/C06]
The “Fik Kinase %Inhibition” value of the first is lower: -10.9% for the first, 3.8% for the second.

First: CNS(=O)(=O)c1ccc2c(c1)C(=Cc1ccccc1OCC(=O)O)C(=O)N2 [10728/D10]
Second: O=C(O)COc1ccccc1C=C1C(=O)Nc2ccc(CCCl)cc21 [10728/G10]
The “Fik Kinase %Inhibition” value of the first is higher: 17.9% for the first, 10.4% for the second.

Going from `O=C1Nc2ccc(I)cc2C1=Cc1cccnc1` [10729/B08] to `O=C1Nc2ccc(I)cc2C1=Cc1ccncc1` [10729/B09], the “Fik Kinase %Inhibition” value falls from -14.7% to -16.0%.

Going from `COc1ccc(OC)c(C=C2C(=O)Nc3ccc(S(=O)(=O)NN4CCOCC4)cc32)c1` [10728/F02] to `CNS(=O)(=O)c1ccc2c(c1)C(=Cc1ccc(OC)c3ccccc13)C(=O)N2` [10729/D03], the “Fik Kinase %Inhibition” value rises from 2.9% to 15.3%.

Compared with `COc1cc(C=C2C(=O)Nc3ccc(S(=O)(=O)Nc4ccc(C(F)(F)F)cc4)cc32)cc2c1OCO2` [10728/E11], `COc1cc(C=C2C(=O)Nc3ccc(S(=O)(=O)Nc4ccc(C(F)(F)F)cc4)cc32)cc(OC)c1` [10728/E04] is lower in “Fik Kinase %Inhibition” value: 16.3% for the first, 5.5% for the second.

Going from `COc1cccc(OC)c1C=C1C(=O)Nc2ccc(CCCl)cc21` [10728/G03] to `COc1cc(C=C2C(=O)Nc3ccc(CCCl)cc32)cc(OC)c1` [10728/G04], the “Fik Kinase %Inhibition” value rises from 14.3% to 21.8%.

Compared with `Cc1c(Br)ccc2c1C(=Cc1cccnc1)C(=O)N2` [10729/C08], `Cc1c(Br)ccc2c1C(=Cc1ccccn1)C(=O)N2` [10729/C07] is lower in “Fik Kinase %Inhibition” value: -20.3% for the first, -22.4% for the second.

Going from `O=C1Nc2ccc(S(=O)(=O)Nc3ccc(C(F)(F)F)cc3)cc2C1=Cc1cccc(Oc2ccccc2)c1` [10729/E06] to `O=C1Nc2ccc(S(=O)(=O)Nc3ccc(C(F)(F)F)cc3)cc2C1=Cc1ccccn1` [10729/E07], the “Fik Kinase %Inhibition” value falls from 12.1% to 4.1%.

Compared with `O=C1Nc2c(Br)cc(Br)cc2C1=Cc1cccnc1` [10729/A08], `O=C1Nc2c(Br)cc(Br)cc2C1=Cc1ccccn1` [10729/A07] is higher in “Fik Kinase %Inhibition” value: -13.3% for the first, -10.0% for the second.

First: CNS(=O)(=O)c1ccc2c(c1)C(=Cc1c(OC)ccc3ccccc13)C(=O)N2 [10729/D02]
Second: COc1ccc2ccccc2c1C=C1C(=O)Nc2ccc(I)cc21 [10729/B02]
The “Fik Kinase %Inhibition” value of the first is lower: 12.2% for the first, 13.8% for the second.

First: Cc1ccc(C=C2C(=O)Nc3c(Br)cc(Br)cc32)s1 [10717/A07]
Second: Cc1ccsc1C=C1C(=O)Nc2c(Br)cc(Br)cc21 [10729/A05]
The “Fik Kinase %Inhibition” value of the first is higher: -6.4% for the first, -17.7% for the second.

Compared with `CCOC(=O)c1c(C)[nH]c(C=C2C(=O)Nc3ccc(I)cc32)c1C` [10718/B02], `CCOC(=O)c1cc(C=C2C(=O)Nc3ccc(I)cc32)oc1C` [10718/B06] is higher in “Fik Kinase %Inhibition” value: 7.0% for the first, 16.5% for the second.

First: O=C1Nc2ccc(S(=O)(=O)Nc3ccc(C(F)(F)F)cc3)cc2C1=Cc1c(F)cccc1C(F)(F)F [10728/E09]
Second: O=C1Nc2ccc(S(=O)(=O)Nc3ccc(C(F)(F)F)cc3)cc2C1=Cc1cccc(C(F)(F)F)c1F [10728/E07]
The “Fik Kinase %Inhibition” value of the first is lower: 9.0% for the first, 9.6% for the second.

Going from `O=C1Nc2ccc(I)cc2C1=Cc1ccccn1` [10729/B07] to `CNS(=O)(=O)c1ccc2c(c1)C(=Cc1ccccn1)C(=O)N2` [10729/D07], the “Fik Kinase %Inhibition” value falls from -13.4% to -15.3%.

Going from `O=C1Nc2c(Br)cc(Br)cc2C1=Cc1ccc(N2CCCC2)cc1` [10729/A10] to `Cc1c(Br)ccc2c1C(=Cc1ccc(N3CCCC3)cc1)C(=O)N2` [10729/C10], the “Fik Kinase %Inhibition” value rises from 0.7% to 2.5%.

Compared with `O=C1Nc2c(Br)cc(Br)cc2C1=Cc1ccc([N+](=O)[O-])o1` [10718/A11], `O=C1Nc2c(Br)cc(Br)cc2C1=Cc1ccco1` [10718/A10] is higher in “Fik Kinase %Inhibition” value: 2.7% for the first, 23.4% for the second.

Going from `O=C1Nc2ccc(I)cc2C1=CC1C=CCCC1` (centres unmarked) [10729/B11] to `CNS(=O)(=O)c1ccc2c(c1)C(=CC1C=CCCC1)C(=O)N2` (centres unmarked) [10729/D11], the “Fik Kinase %Inhibition” value falls from 7.8% to -2.0%.

First: O=C(O)COc1ccccc1C=C1C(=O)Nc2ccc(S(=O)(=O)Nc3ccc(C(F)(F)F)cc3)cc21 [10728/E10]
Second: COc1cccc(OC)c1C=C1C(=O)Nc2ccc(S(=O)(=O)Nc3ccc(C(F)(F)F)cc3)cc21 [10728/E03]
The “Fik Kinase %Inhibition” value of the first is higher: 24.7% for the first, 13.2% for the second.

Compared with `Cc1c(O)ccc(C=C2C(=O)Nc3c(Br)cc(Br)cc32)c1O` [10718/A09], `COc1ccc(C=C2C(=O)Nc3c(Br)cc(Br)cc32)c2ccccc12` [10729/A03] is higher in “Fik Kinase %Inhibition” value: -18.4% for the first, 4.7% for the second.

Going from `O=C1Nc2ccc(I)cc2C1=Cc1ccc(N2CCCC2)cc1` [10729/B10] to `CNS(=O)(=O)c1ccc2c(c1)C(=Cc1ccc(N3CCCC3)cc1)C(=O)N2` [10729/D10], the “Fik Kinase %Inhibition” value rises from -0.7% to 4.1%.

First: COc1cc(Br)c(O)c(C=C2C(=O)Nc3ccc(I)cc32)c1 [10718/B03]
Second: O=C1Nc2ccc(I)cc2C1=Cc1ccc2ccccc2c1O [10718/B04]
The “Fik Kinase %Inhibition” value of the first is lower: 1.7% for the first, 11.8% for the second.

Going from `COc1ccc(C=C2C(=O)Nc3ccc(I)cc32)c2ccccc12` [10729/B03] to `COc1ccc2ccccc2c1C=C1C(=O)Nc2c(Br)cc(Br)cc21` [10729/A02], the “Fik Kinase %Inhibition” value rises from 11.2% to 15.5%.

Going from `CNS(=O)(=O)c1ccc2c(c1)C(=Cc1cc(C(F)(F)F)ccc1F)C(=O)N2` [10728/D08] to `O=C1Nc2ccc(CCCl)cc2C1=Cc1cc(C(F)(F)F)ccc1F` [10728/G08], the “Fik Kinase %Inhibition” value rises from 13.5% to 21.4%.

First: CNS(=O)(=O)c1ccc2c(c1)C(=Cc1sccc1C)C(=O)N2 [10729/D05]
Second: O=C1Nc2ccc(S(=O)(=O)Nc3ccc(C(F)(F)F)cc3)cc2C1=Cc1cc(C(F)(F)F)ccc1F [10728/E08]
The “Fik Kinase %Inhibition” value of the first is lower: 2.2% for the first, 15.2% for the second.

Compared with `O=C1Nc2ccc(CCCl)cc2C1=Cc1cccc(C(F)(F)F)c1F` [10728/G07], `O=C1Nc2ccc(CCCl)cc2C1=Cc1c(F)cccc1C(F)(F)F` [10728/G09] is lower in “Fik Kinase %Inhibition” value: 22.6% for the first, 6.8% for the second.
